This note sets out measurements from patent US20050197350A1, “Novel quinoline, tetrahydroquinazoline, and pyrimidine derivatives and methods of treatment related to the use thereof” (TAISHO PHARMACEUTICAL CO., LTD., priority 2003, published 2005).

This test concerns MCH receptors. In words: MCH receptor activity class (method not given). The conditions noted are these: class by percent of control at 10^-7 M or IC50.

For the compound `CN(C)c1ccnc(N[C@H]2CC[C@@H](NCc3c[nH]nc3-c3ccc(C(F)(F)F)cc3)CC2)n1` [compound 1218], the class is reported as 3 (Class 3 The value of percent of control at 10^−7 M was more than 60% or the value of IC50 was more than 200 nM.).

As to `COc1cc(CN[C@H]2CC[C@@H](Nc3nccc(N(C)C)n3)CC2)cc(OC)c1OC` [compound 1219, N4,N4-dimethyl-N2-{cis-4-[(3,4,5-trimethoxybenzyl)amino]cyclohexcyl}pyrimidine-2,4-diamine], the class is given as 3 (Class 3 The value of percent of control at 10^−7 M was more than 60% or the value of IC50 was more than 200 nM.). Take `COc1cc(CN[C@H]2CC[C@@H](Nc3nccc(N(C)C)n3)CC2)cc(OC)c1` [compound 1221]: the class is reported as 3 (Class 3 The value of percent of control at 10^−7 M was more than 60% or the value of IC50 was more than 200 nM.). As to `COc1cc(CN[C@H]2CC[C@@H](Nc3nccc(N(C)C)n3)CC2)cc(I)c1O` [compound 1222], the class was 3 (Class 3 The value of percent of control at 10^−7 M was more than 60% or the value of IC50 was more than 200 nM.). Regarding `Cc1cc(CN[C@H]2CC[C@@H](Nc3nccc(N(C)C)n3)CC2)cc(C)c1O` [compound 1223], the class was 3 (Class 3 The value of percent of control at 10^−7 M was more than 60% or the value of IC50 was more than 200 nM.). For `COc1cccc(CN[C@H]2CC[C@@H](Nc3nccc(N(C)C)n3)CC2)c1` [compound 1224] the value was 3 (Class 3 The value of percent of control at 10^−7 M was more than 60% or the value of IC50 was more than 200 nM.). As for `CN(C)c1ccnc(N[C@H]2CC[C@@H](NCc3ccc(F)c(Br)c3)CC2)n1` [compound 1225], the class is on record as 3 (Class 3 The value of percent of control at 10^−7 M was more than 60% or the value of IC50 was more than 200 nM.).

For `Cc1ccc2occ(CN[C@H]3CC[C@@H](Nc4nccc(N(C)C)n4)CC3)c(=O)c2c1` [compound 1227, 3-{[(cis-4-{[4-(dimethylamino)pyrimidin-2-yl]amino}-cylohexyl}-amino]methyl}-6-methyl-4H-chromen-4-one], the class was 3 (Class 3 The value of percent of control at 10^−7 M was more than 60% or the value of IC50 was more than 200 nM.). Consider `Cc1cc2occ(CN[C@H]3CC[C@@H](Nc4nccc(N(C)C)n4)CC3)c(=O)c2cc1Cl` [compound 1228], for which the class is listed as 3 (Class 3 The value of percent of control at 10^−7 M was more than 60% or the value of IC50 was more than 200 nM.).

For `Cc1cc(C)c2occ(CN[C@H]3CC[C@@H](Nc4nccc(N(C)C)n4)CC3)c(=O)c2c1` [compound 1229], the class is on record as 3 (Class 3 The value of percent of control at 10^−7 M was more than 60% or the value of IC50 was more than 200 nM.).

Regarding `Cc1cc(CN[C@H]2CC[C@@H](Nc3nccc(N(C)C)n3)CC2)c(C)n1-c1ccccc1` [compound 1230], the class was 3 (Class 3 The value of percent of control at 10^−7 M was more than 60% or the value of IC50 was more than 200 nM.). For `CCCCC/C(=C\c1ccccc1)CN[C@H]1CC[C@@H](Nc2nccc(N(C)C)n2)CC1` [compound 1232] the value was 3 (Class 3 The value of percent of control at 10^−7 M was more than 60% or the value of IC50 was more than 200 nM.); for `COc1ccccc1/C=C/CN[C@H]1CC[C@@H](Nc2nccc(N(C)C)n2)CC1` [compound 1233], 3 (Class 3 The value of percent of control at 10^−7 M was more than 60% or the value of IC50 was more than 200 nM.). For `CN(C)c1ccnc(N[C@H]2CC[C@@H](NCc3coc4ccc(Cl)cc4c3=O)CC2)n1` [compound 1234], the class was 3 (Class 3 The value of percent of control at 10^−7 M was more than 60% or the value of IC50 was more than 200 nM.).

Consider `CN(C)c1ccnc(N[C@H]2CC[C@@H](NCc3cncc(-c4ccc(F)cc4)c3)CC2)n1` [compound 1235], for which the class is recorded as 2 (Class 2: The value of percent of control at 10^−7 M was from 40% to 60% or the value of IC′50 was from 50 nM to 200 nM.).

In the case of `CCOC(=O)c1[nH]c2cc(Cl)cc(Cl)c2c1CN[C@H]1CC[C@@H](Nc2nccc(N(C)C)n2)CC1` [compound 1236], the class is 1 (Class 1: The value of percent of control at 10^−7 M was less than 40% or the value of IC50 was less than 50 nM.).

As to `COC(=O)c1ccccc1Sc1nc2sccn2c1CN[C@H]1CC[C@@H](Nc2nccc(N(C)C)n2)CC1` [compound 1237], the class is on record as 3 (Class 3 The value of percent of control at 10^−7 M was more than 60% or the value of IC50 was more than 200 nM.). As for `CN(C)c1ccnc(N[C@H]2CC[C@@H](NCc3c[nH]nc3-c3ccc(F)cc3)CC2)n1` [compound 1238], the class is listed as 3 (Class 3 The value of percent of control at 10^−7 M was more than 60% or the value of IC50 was more than 200 nM.). For the compound `CSc1ccc(CN[C@H]2CC[C@@H](Nc3nccc(N(C)C)n3)CC2)cc1` [compound 1239], the class is on record as 3 (Class 3 The value of percent of control at 10^−7 M was more than 60% or the value of IC50 was more than 200 nM.).

For the compound `CN(C)c1ccnc(N[C@H]2CC[C@@H](NCc3cccc4ccccc34)CC2)n1` [compound 1240], the class was 3 (Class 3 The value of percent of control at 10^−7 M was more than 60% or the value of IC50 was more than 200 nM.). Consider `COc1cc(CN[C@H]2CC[C@@H](Nc3nccc(N(C)C)n3)CC2)ccc1O` [compound 1241], for which the class is on record as 3 (Class 3 The value of percent of control at 10^−7 M was more than 60% or the value of IC50 was more than 200 nM.).

With `CN(C)c1ccnc(N[C@H]2CC[C@@H](NCc3ccc(F)c(Cl)c3)CC2)n1` [compound 1242], the class is recorded as 3 (Class 3 The value of percent of control at 10^−7 M was more than 60% or the value of IC50 was more than 200 nM.). With `COc1cccc(OC)c1CNC[C@H]1CC[C@@H](Nc2nccc(N(C)C)n2)CC1` [compound 1243], the class is recorded as 2 (Class 2: The value of percent of control at 10^−7 M was from 40% to 60% or the value of IC′50 was from 50 nM to 200 nM.). For `CCOc1ccccc1CNC[C@H]1CC[C@@H](Nc2nccc(N(C)C)n2)CC1` [compound 1244] the value was 2 (Class 2: The value of percent of control at 10^−7 M was from 40% to 60% or the value of IC′50 was from 50 nM to 200 nM.); for `CN(C)c1ccnc(N[C@H]2CC[C@@H](CNCc3c[nH]c4ccccc34)CC2)n1` [compound 1245], 3 (Class 3 The value of percent of control at 10^−7 M was more than 60% or the value of IC50 was more than 200 nM.); for `COc1ccc(OC)c(CNC[C@H]2CC[C@@H](Nc3nccc(N(C)C)n3)CC2)c1` [compound 1246], 3 (Class 3 The value of percent of control at 10^−7 M was more than 60% or the value of IC50 was more than 200 nM.). As for `COc1ccc(CNC[C@H]2CC[C@@H](Nc3nccc(N(C)C)n3)CC2)c2ccccc12` [compound 1247], the class was 1 (Class 1: The value of percent of control at 10^−7 M was less than 40% or the value of IC50 was less than 50 nM.). As to `COc1ccc2[nH]cc(CNC[C@H]3CC[C@@H](Nc4nccc(N(C)C)n4)CC3)c2c1` [compound 1248], the class was 2 (Class 2: The value of percent of control at 10^−7 M was from 40% to 60% or the value of IC′50 was from 50 nM to 200 nM.).

Consider `COc1ccc2ccccc2c1CNC[C@H]1CC[C@@H](Nc2nccc(N(C)C)n2)CC1` [compound 1249], for which the class was 1 (Class 1: The value of percent of control at 10^−7 M was less than 40% or the value of IC50 was less than 50 nM.).
